Laboratory results: US9492501B2, “Antiviral agent” (priority 2009, dated 2016)

How the values were obtained:
[1] = system: HIV-1 (proviral genome NL4.3, strain LAI); assay: HIV-1 replication, ELISA of viral p24 capsid protein in supernatant of infected Jurkat 1G5 cells; assay type: cell-based; conditions: Human immunodeficiency virus 1; 10 μM AZT, treatment 24 hours, p24 in supernatant, Jurkat 1G5
Description: (§1) Method: a Jurkat CD4+ T lymphocyte cell line (line 1G5) having integrated into its genome a construction comprising a luciferase reporter gene the expression of which is controlled by the HIV-1 promoter (HIV-1 LTR; HIV-LTR Jurkat line) was used. The measurement of luciferase activity from the cell extracts therefore makes it possible to estimate the HIV-1 transcriptional activity.
(§2) The Jurkat HIV-LTR and Jurkat 1G5 lines were transfected by means of the DEAE-dextran technique with the proviral genome NL4.3 (complete HIV-1 genome, strain LAI).
(§3) The HIV-LTR Jurkat and 1G5 Jurkat lines thus infected, are treated 24 hours later with HPBP/PON protein complexes or with purified PON or HPBP proteins at a final concentration of 2 μg/mL of medium (52 nM of protein alone).
(§4) The cells and the cell supernatant are sampled after treatment for 24 hours.
(§5) The transcriptional activity is measured by carrying out a luciferase test. The intensity of the HIV-1 replication is measured by means of ELISA assay of the quantity of viral p24 capsid proteins present in the supernatant of the cell cultures of the infected 1G5 lines [Rohr, O., et al. (2000). The Journal of Biological Chemistry 275, 2654-2660]. […]
(§6) The transcriptional activity and inhibition of the replication are measured as described in Example 6.

[2] = system: HIV-1 promoter (HIV-1 LTR); assay: HIV-1 transcriptional activity, luciferase test in HIV-LTR Jurkat line; assay type: cell-based; conditions: 10 μM AZT, treatment 24 hours, FIG. 5 (luciferase activity)
Description: as §1, §2, §3, §4, §5, §6

Cc1cn([C@H]2C[C@H](N=[N+]=[N-])[C@@H](CO)O2)c(=O)[nH]c1=O [AZT, zidovudine, reference compound]
inhibition at 10 µM [1]: 60%
effect on the replication of the virus (FIG. 5) [2]: no effect
